According to US20100093609A1, “PRODRUGS OF TRICIRIBINE AND TRICIRIBINE PHOSPHATE” (priority 2007, published 2010):

Key:
[1] = Systemic plasma concentrations after duodenal administration to rats; conditions: rat, duodenal administration of 3 mg
in vitro = conditions: human
[2] = Stability in 100 mM phosphate buffer, pH 6.5; conditions: pH 6.5, 37° C., 0-3 hours, LC/MS/MS

With `CN1N=C(N)c2cn([C@@H]3O[C@H](COP(=O)(O)O)[C@@H](O)[C@H]3O)c3ncnc1c23` [TCNP, 6-amino-4-methyl-8-(beta.-D-ribofuranosyl)pyrrolo[4,3,2-de]pyrimido[4,5-c]pyridazine 5′ phosphate] the “cytotoxic effects (in words)” value (HFF cells) was “more toxic than TCN”, the “intestinal absorption / plasma levels (in words)” value [1] was “very little intestinal absorption” and the peak plasma levels ([1]; FIGS. 5 and 6) was “about 1.25 ng/ml”. The “AUC0-4 hr of the administered compound (parent or intact prodrug)” value ([1]; plasma over 4 hours) was 4.4 ± 0.9 (ng/ml)/hr, the IC50 at 8 days (in vitro) was 32 µM and the “stability in buffer (in words)” value [2] was “stable”.
